According to ChEMBL document CHEMBL5532685 (J Nat Prod, 2024):

What was measured:
[1] = biological target: Replicase polyprotein 1ab (Severe acute respiratory syndrome coronavirus 2, UniProt P0DTD1); test: Inhibition of SARS-CoV2 MPro using Dabcyl-KTSAVLQSGFRKME-Edans as substrate by fluorescence based analysis
[2] = biological target: Spike glycoprotein/Angiotensin-converting enzyme 2 (Severe acute respiratory syndrome coronavirus 2, UniProt P0DTC2+Q9BYF1); test: Inhibition of His-tagged SARS-CoV2 USA-WA1/2020 spike-RBD/biotinylated Fc-tagged ACE2 (unknown origin) protein protein interaction incubated for 1 hr by Alphascreen assay
Spike glycoprotein/Angiotensin-converting enzyme 2, sequence (Q9BYF1 18-805 limits assumed, other chains not shown): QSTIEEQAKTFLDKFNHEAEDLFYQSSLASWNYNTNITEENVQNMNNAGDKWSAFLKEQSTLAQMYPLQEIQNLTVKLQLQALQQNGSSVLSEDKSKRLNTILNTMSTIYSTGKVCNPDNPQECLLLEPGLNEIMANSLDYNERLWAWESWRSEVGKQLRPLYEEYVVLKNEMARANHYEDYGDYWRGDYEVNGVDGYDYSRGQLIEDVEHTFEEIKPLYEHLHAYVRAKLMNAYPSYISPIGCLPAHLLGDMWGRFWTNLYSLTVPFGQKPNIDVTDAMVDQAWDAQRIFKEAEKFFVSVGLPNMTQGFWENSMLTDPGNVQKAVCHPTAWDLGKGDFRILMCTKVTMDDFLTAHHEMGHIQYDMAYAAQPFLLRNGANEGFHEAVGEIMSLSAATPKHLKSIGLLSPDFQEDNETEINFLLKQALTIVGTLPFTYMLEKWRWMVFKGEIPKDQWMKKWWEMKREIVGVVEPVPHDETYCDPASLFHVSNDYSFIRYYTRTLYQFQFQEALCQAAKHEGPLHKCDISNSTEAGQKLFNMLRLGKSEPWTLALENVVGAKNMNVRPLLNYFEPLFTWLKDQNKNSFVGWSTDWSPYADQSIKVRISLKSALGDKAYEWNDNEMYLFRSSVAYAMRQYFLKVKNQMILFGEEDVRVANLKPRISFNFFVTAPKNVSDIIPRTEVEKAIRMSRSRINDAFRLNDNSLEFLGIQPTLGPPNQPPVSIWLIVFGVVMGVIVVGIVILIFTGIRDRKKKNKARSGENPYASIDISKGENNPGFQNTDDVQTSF

Prothrombin = Prothrombin (Homo sapiens, UniProt P00734); test: Inhibition of human thrombin
[3] = biological target: Programmed cell death protein 1/Programmed cell death 1 ligand 1 (Homo sapiens, UniProt Q15116+Q9NZQ7); test: Inhibition of PD-1/PD-L1 (unknown origin) protein protein interaction; assay type: protein-complex assay
Programmed cell death protein 1/Programmed cell death 1 ligand 1, sequence (Q15116 whole entry): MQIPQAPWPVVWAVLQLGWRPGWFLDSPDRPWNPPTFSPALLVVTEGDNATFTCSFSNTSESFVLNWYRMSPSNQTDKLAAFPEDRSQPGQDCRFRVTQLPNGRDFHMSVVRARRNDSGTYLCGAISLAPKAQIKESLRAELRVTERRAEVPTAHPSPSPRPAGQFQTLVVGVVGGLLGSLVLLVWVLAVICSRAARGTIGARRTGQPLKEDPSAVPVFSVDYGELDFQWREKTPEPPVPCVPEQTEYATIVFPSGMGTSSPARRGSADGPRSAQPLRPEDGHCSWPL
Programmed cell death protein 1/Programmed cell death 1 ligand 1, sequence (Q9NZQ7 whole entry): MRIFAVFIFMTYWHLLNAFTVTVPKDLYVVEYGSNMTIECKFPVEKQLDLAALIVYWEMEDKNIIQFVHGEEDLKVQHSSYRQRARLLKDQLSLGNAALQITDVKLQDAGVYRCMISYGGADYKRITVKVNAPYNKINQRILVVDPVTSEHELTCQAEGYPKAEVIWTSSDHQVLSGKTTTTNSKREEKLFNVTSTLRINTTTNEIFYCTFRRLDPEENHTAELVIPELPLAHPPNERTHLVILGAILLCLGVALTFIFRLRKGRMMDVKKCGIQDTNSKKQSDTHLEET

Procathepsin L = Procathepsin L (Homo sapiens, UniProt P07711); test: Inhibition of human cathepsin L
Procathepsin L, sequence (P07711 whole entry): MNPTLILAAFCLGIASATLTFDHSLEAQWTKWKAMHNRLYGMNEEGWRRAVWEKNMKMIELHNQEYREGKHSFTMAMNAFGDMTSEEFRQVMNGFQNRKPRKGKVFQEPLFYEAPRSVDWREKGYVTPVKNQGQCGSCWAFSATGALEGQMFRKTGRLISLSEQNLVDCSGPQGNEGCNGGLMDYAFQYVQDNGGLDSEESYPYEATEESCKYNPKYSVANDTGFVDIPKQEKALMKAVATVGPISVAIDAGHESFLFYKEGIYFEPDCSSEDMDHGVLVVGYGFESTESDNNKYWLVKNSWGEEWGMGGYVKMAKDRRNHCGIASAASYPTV

| Structure (SMILES) | IC50 [1] | IC50 [2] | IC50 (Prothrombin) | IC50 [3] | IC50 (Procathepsin L) |
| --- | --- | --- | --- | --- | --- |
| CCCCCCCCCC(C)CCC(C)C(=O)OC (configuration not stated) | > 370 µM | > 370 µM | – | – | – |
| CCCCCCCCCC(C)CCC(C)C(=O)O (configuration not stated) | – | – | > 390 µM | > 390 µM | 218 µM |
| CCCCCCCCCC(C)CCC(C)C(=O)OCc1ccccc1 (configuration not stated) | > 289 µM | > 289 µM | – | – | – |
